Results from US20200281897A1, “INDAZOLE DERIVATIVES FOR CANCER TREATMENT” (Servicio Andaluz de Salud, priority 2016, published 2020).

Key:
MM1S = assay: MTT cell viability assay, myeloma cell line MM1S; format: cell-based, human; conditions: MM1S, MTT, 18 hours, doses 0-50 μM; read-out: IC50, cell viability
Procedure: In vitro studies were carried out using six different human MM cell lines, U266, RPMI8226, MM1S, MM1R, U266-LR7, and RPMI-LR5. For ex vivo assays, human primary cells from healthy donors and MM patients were used (Table 1). Human MM cell lines U266, RPMI8226, and MM1.S were acquired from ATCC and lines U266-LR7, RPMI-LR5, and MM1.R were kindly provided by Dr. Enrique Ocio (Hospital Universitario de Salamanca, Spain). The primary cells were obtained from bone marrow (BM) aspirates or peripheral blood (PB) samples, and the peripheral blood mononuclear cells (PBMCs) were isolated by Ficoll-Hypaque centrifugation and washed twice in phosphate buffered saline (PBS) containing 1% BSA. Hematopoietic stem cells and B and T lymphocytes were isolated from healthy PB donors by positive immunomagnetic separation using human MACS CD34+, CD19+, and CD3+ microbeads, respectively. MM plasma cells were obtained from the bone marrow (BM) of patients with an infiltration of cells of more than 30% (Table 1). The MM plasma cells were identified using CD138+, and were then distinguished from the other cell populations by flow cytometry using a suitable combination of antibodies: anti-human CD64-FITC, CD34-PE, CD56-APC, CD38-APC-H7, and CD45-Pacific Blue antibodies (BD Biosciences, San Jose, Calif.). All the cell lines were cultured in RPMI-1640 supplemented with 10% fetal bovine serum (FBS) and 1% penicillin/streptomycin, as recommended by the supplier. For human primary cells, the concentration of FBS was up to 20%.
The MM cell lines and primary cells were exposed to different doses of indazole compounds, and viability was evaluated at 18, 48, and 72 hours. Pretreatments with the ceramide synthesis inhibitor (FB1), pan-caspase (ZVAD-FMK), and CB antagonists (PGN-8, PGN-37, and PGN-70) were performed for 30 minutes, and then the cells were incubated with indazole compound WIN-55 up to 18 hours. Cell viability was determined using the MTT assay Cell Counting Kit-8 (Dojindo, Kumamoto, Japan) according to the manufacturer's instructions.

U266 cells = assay: MM xenograft in NGS mice; format: in vivo
Procedure: The “NOD/scid/IL-2R gammae null” (NGS) mice were acquired from Charles River (France). The tumor xenografts were induced by the subcutaneous injection of 5×10^6 U266 cells mixed with 100 μl of Matrigel (BD Biosciences) in 8-week old mice. When the tumors became palpable (>0.5 cm), the mice were randomly assigned in the following groups (10 mice per group), which received i.p.: 1) 5 mg/kg WIN-55 every 24 hours, 2) 5 mg/kg WIN-55 every 48 hours, and 3) a vehicle. Two groups were left tumor-free and served as a negative control, receiving treatment every 24 or 48 hours, respectively. The tumor growth was evaluated daily by measuring the two bisecting diameters of the tumor with a digital Vernier gauge or caliper. The volume was calculated using the following formula: volume=length×(width) e2×0.4 mm^3. The animals were sacrificed when the length or width of the tumor reached 2 cm.

NB-4 = assay: WST-1 cell viability assay, NB-4; format: cell-based, human; conditions: NB-4, 18 hours
Procedure: U937, NB-4, KG-1, and MOLM-13 (DMSZ, Braunschweig, Germany) were cultured in complete RPMI 1640 medium (with 2 mM of L-glutamine, 100 mg of penicillin, 100 μg/ml of streptomycin, and with 10% FBS), supplemented with 10 mM HEPES, 1×NaPuvuvato, and 1× non-essential amino acids.
The cell lines and primary cells were cultured in 96-well plates (5×10e5 cells per well) with the addition of the indicated concentrations of WIN 55,212-2 or PGN cannabinoids in DMSO or with the solvent only in triplicate at 18, 48, and 72 hours. Caspase inhibitor Z-VAD (OMe)-FMK or the CB2 receptor antagonist PGN-8, -37, and -70, together with the cannabinoid WIN-55,212-2, were also added. Cell viability was determined by means of the WST-1 assay [2-(4-iodophenyl)-3-(4-nitrophenyl)-5-(2,4-disulfophenyl)-2H-tetrazolium] according to the manufacturer's instructions (Dojindo Molecular Technologies). Optical densities were measured at 450 nm using a Multiskan™ Go Microplate plate reader (Thermo Fisher Scientific, Waltham, Mass., USA).
Now it will be analyzed whether the exposure to cannabinoids had any effect on the viability of the tumor cells in vitro. […]

HL60 cells = assay: Murine model of AML (HL60 in NSG mice); format: in vivo; conditions: 5 mg/kg/day
Description: The NOD/scid/IL-2R gammae null (NSG) mice were acquired from Charles River Laboratories International (L'Arbresle, France) and received food and water ad libitum, under specific pathogen-free conditions. When the mice were 8-12 weeks old, AML was induced by intravenous inoculation of the HL60 cell line, and the mice were monitored to confirm progression of the disease by means of studying weight loss and detecting human CD45+ cells in bone marrow BM aspirates and flow cytometry analysis. Once the presence of leukemia cells was confirmed, treatment with a vehicle, WIN-55 212 cannabinoid was administered at a dose of 5 mg/kg/day or cytarabine (ARA-C) at 50 mg/kg for 5 days.

Compound: CS(=O)(=O)O.Cc1c(C(=O)c2cccc3ccccc23)c2cccc3c2n1[C@H](CN1CCOCC1)CO3 [WIN-55, (R)-(+)-[2,3-dihydro-5-methyl-3-(4-morpholinomethyl)-pyrrolo[1,2,3]-1,4-benzoxazin-6-yl]-1-naphthalenylmethanone mesylate]
- IC50 (MM1S): 13.6 µM
- tumor growth (tumor volume) (U266 cells; 5 mg/kg i.p. every 24 or 48 hours, NGS mice, U266 xenograft): considerably inhibits tumor growth
- first day on which tumor volume differences were statistically significant (U266 cells; 5 mg/kg i.p. every 24 hours): 13 days
- first day on which tumor volume differences were statistically significant (U266 cells; 5 mg/kg i.p. every 48 hours): 16 days
- % viable cells at 50 μM (NB-4): 49.1%
- IC50 (NB-4): 25.1 µM
- number of HL60 cells in bone marrow (HL60 cells): vast reduction
- survival (HL60 cells; versus control group and ARA-C group): significant increase in survival
